Data as given in patent publication EP3150201B1, “COMPOSITE PREPARATION COMPRISING 5- -REDUCTASE INHIBITOR-CONTAINING FILM COATING LAYER, AND METHOD FOR PRODUCING THE COMPOSITE PREPARATION” (Hanmi Pharm. Co., Ltd., priority 2014, dated 2016).

Legend:
[1] = Solubility test of finasteride and coating materials (visual observation); format: physicochemical; conditions: organic solvent-water mixture solvents of Comparative Example 1, 2, 5, 6, and 7; visually observed
Experimental: Finasteride, Kollicoat® IR, povidone, and polyvinyl alcohol were added to the organic solvent-water mixture solvents in a variety of ratios presented in Tables 1 to 4, and it was visually observed whether finasteride, Kollicoat® IR, povidone, and polyvinyl alcohol were soluble or not in each of the organic solvent-water mixture solvents.

[2] = Crystalline form analysis of dried film by X-ray diffractometry (Test Example 4); format: physicochemical; conditions: raw material powder or dried film from the film coating solution
Experimental: Each film coating solution prepared in Examples 2 and 7 and Comparative Example 2 was sprayed on a Petri dish and dried to form a film. These films were collected, and crystalline forms thereof were analyzed using an X-ray diffractometer (D8 Advance, Bruker) with Cu X-ray radiation at a voltage of 40 kV, at a current of 100 mA, and with a scan rate of 3 deg/min. The results of the X-ray diffractometry of finasteride powder as a raw material, and the dried films prepared using the film coating solutions of Examples 2 and 7 and Comparative Example 2 are shown in FIG. 5.

With `CC(C)(C)NC(=O)[C@H]1CC[C@H]2[C@@H]3CC[C@H]4NC(=O)C=C[C@]4(C)[C@H]3CC[C@]12C` [Finasteride, finasteride] the soluble or not [1] was “insoluble” and the crystalline form [2] was “crystalline”.
